Measurements taken from patent publication US8207226B1, “Use of FAAH antagonists for treating dry eye and ocular pain” (Alcon Research, Ltd., priority 2008, dated 2012).

Test system: cornea (capsaicin-induced blinking)
Assay type: in vivo, Sprague-Dawley rats
Settings: for reduction of blink rate elicited by capsaicin: topical ocular dosing in 10% cyclodextrin vehicle 5 min before capsaicin (5 μL of 0.0005%), seven week old Sprague-Dawley rats, blinks counted for one minute
Source text: A capsaicin blink test was used to determine the pharmacological effect of two fatty acid amides, oleamide and anandamide. The test measured the pain response of the cornea by the number of times the animal blinked after the application of capsaicin.
Lyophilized anandamide was resuspended in an aqueous 10% cyclodextrin solution that was buffered with an aliquot of 10× phosphate buffered saline (PBS) (Laine et. al., 2001, Pharmaceutical Research. 18:494-499). The test article, either cyclodextrin vehicle or fatty acid amide (FAA), was dosed to both eyes of seven week old Sprague-Dawley rats (n=8, per group) five minutes prior to the application of capsaicin. Blinks were counted after the application of anandamide. Animals were dosed with 5 μL of vehicle in OS eye. After a 5-second period, blinks were counted for one minute. Capsaicin (5 μL of 0.0005%) was dosed in the OD eye. Blinks were counted in the same manner as the OS eye.

solubility in the 10% cyclodextrin vehicle (rat, in vivo)	Structure (SMILES)	blinking after test article alone (before capsaicin application) (rat, in vivo)	reduction of blink rate elicited by capsaicin
	CCCCC/C=C\C/C=C\C/C=C\C/C=C\CCCC(=O)NCCO [anandamide]	rapid blinking for approximately one minute, followed by normal rates of blinking	50%
only partial solubility	CCCCCCCC/C=C\CCCCCCCC(N)=O [Oleamide, oleamide]		20%
